Test results as given in the NIST ThermoML archive (doi:10.1021/je020120h).
Numbers after ± are expanded uncertainties.

Key:
[1] = excess molar enthalpy (molar enthalpy of mixing); xn = mol fraction of the nth substance listed; settings: 298.15 K, 101.3 kPa, Liquid, Flow calorimetry
[2] = 298.15 K; 101.33 kPa; Liquid; Vibrating tube method

**Q.** Which results are given for `Cc1ccc(C)cc1` [1,4-dimethylbenzene] + COC(=O)OC?
**A.** excess molar enthalpy ([1]; x2 = 0.0504): 0.0295 ± 0.000693 kcal/mol; excess molar enthalpy ([1]; x2 = 0.101): 0.0543 ± 0.00122 kcal/mol; excess molar enthalpy ([1]; x2 = 0.1515): 0.0837 ± 0.00184 kcal/mol; excess molar enthalpy ([1]; x2 = 0.202): 0.102 ± 0.00222 kcal/mol; excess molar enthalpy ([1]; x2 = 0.2529): 0.119 ± 0.00263 kcal/mol; excess molar enthalpy ([1]; x2 = 0.3012): 0.133 ± 0.00287 kcal/mol; excess molar enthalpy ([1]; x2 = 0.3512): 0.145 ± 0.00311 kcal/mol; excess molar enthalpy ([1]; x2 = 0.4022): 0.153 ± 0.00335 kcal/mol; excess molar enthalpy ([1]; x2 = 0.4515): 0.159 ± 0.00335 kcal/mol; excess molar enthalpy ([1]; x2 = 0.5016): 0.161 ± 0.00359 kcal/mol; excess molar enthalpy ([1]; x2 = 0.5524): 0.16 ± 0.00359 kcal/mol; excess molar enthalpy ([1]; x2 = 0.6013): 0.156 ± 0.00335 kcal/mol; excess molar enthalpy ([1]; x2 = 0.6507): 0.149 ± 0.00311 kcal/mol; excess molar enthalpy ([1]; x2 = 0.7004): 0.139 ± 0.00311 kcal/mol; excess molar enthalpy ([1]; x2 = 0.7503): 0.125 ± 0.00263 kcal/mol; excess molar enthalpy ([1]; x2 = 0.8003): 0.109 ± 0.00237 kcal/mol; excess molar enthalpy ([1]; x2 = 0.8502): 0.0879 ± 0.00194 kcal/mol; excess molar enthalpy ([1]; x2 = 0.9018): 0.0621 ± 0.00139 kcal/mol; excess molar enthalpy ([1]; x2 = 0.9511): 0.033 ± 0.000765 kcal/mol

**Q.** Which mass density [2] does the source give for `CCOC(=O)c1ccccc1` [ethyl benzoate] here?
**A.** 1041.3 ± 0.5 kg/m3

**Q.** With `Cc1cccc(C)c1` [1,3-dimethylbenzene] as the molecule, how does the mass density [2] read?
**A.** 860 ± 0.5 kg/m3

**Q.** With `CCc1ccccc1` [ethylbenzene] + COC(=O)OC as the molecule, how does the excess molar enthalpy ([1]; x2 = 0.0501) read?
**A.** 0.0215 ± 0.000526 kcal/mol

**Q.** And the excess molar enthalpy ([1]; x2 = 0.1003)?
**A.** 0.0489 ± 0.0011 kcal/mol

**Q.** And the excess molar enthalpy ([1]; x2 = 0.149)?
**A.** 0.0639 ± 0.00141 kcal/mol

**Q.** What about the excess molar enthalpy ([1]; x2 = 0.201) of the same molecule?
**A.** 0.0848 ± 0.00186 kcal/mol

**Q.** What about the excess molar enthalpy ([1]; x2 = 0.2512) of the same molecule?
**A.** 0.104 ± 0.00227 kcal/mol

**Q.** What about the excess molar enthalpy ([1]; x2 = 0.2998) of the same molecule?
**A.** 0.119 ± 0.00263 kcal/mol

**Q.** And the excess molar enthalpy ([1]; x2 = 0.3525)?
**A.** 0.133 ± 0.00287 kcal/mol

**Q.** And the excess molar enthalpy ([1]; x2 = 0.4005)?
**A.** 0.143 ± 0.00311 kcal/mol

**Q.** What about the excess molar enthalpy ([1]; x2 = 0.4524) of the same molecule?
**A.** 0.15 ± 0.00335 kcal/mol

**Q.** What about the excess molar enthalpy ([1]; x2 = 0.5025) of the same molecule?
**A.** 0.153 ± 0.00335 kcal/mol

**Q.** And the excess molar enthalpy ([1]; x2 = 0.5507)?
**A.** 0.153 ± 0.00335 kcal/mol

**Q.** And the excess molar enthalpy ([1]; x2 = 0.602)?
**A.** 0.151 ± 0.00335 kcal/mol

**Q.** And the excess molar enthalpy ([1]; x2 = 0.6513)?
**A.** 0.145 ± 0.00311 kcal/mol

**Q.** What about the excess molar enthalpy ([1]; x2 = 0.7011) of the same molecule?
**A.** 0.135 ± 0.00287 kcal/mol

**Q.** What about the excess molar enthalpy ([1]; x2 = 0.7512) of the same molecule?
**A.** 0.123 ± 0.00263 kcal/mol

**Q.** And the excess molar enthalpy ([1]; x2 = 0.8012)?
**A.** 0.106 ± 0.00232 kcal/mol

**Q.** What about the excess molar enthalpy ([1]; x2 = 0.8513) of the same molecule?
**A.** 0.0865 ± 0.00189 kcal/mol

**Q.** What about the excess molar enthalpy ([1]; x2 = 0.9012) of the same molecule?
**A.** 0.0623 ± 0.00139 kcal/mol

**Q.** What about the excess molar enthalpy ([1]; x2 = 0.9509) of the same molecule?
**A.** 0.0335 ± 0.000789 kcal/mol

**Q.** For `COC(=O)OC` [dimethyl carbonate], which mass density [2] is on record?
**A.** 1063.1 ± 0.5 kg/m3

**Q.** For `Cc1ccccc1C` [1,2-dimethylbenzene], which mass density [2] is on record?
**A.** 875 ± 0.5 kg/m3

**Q.** With `CCOC(=O)c1ccccc1` [ethyl benzoate] + COC(=O)OC as the molecule, how does the excess molar enthalpy ([1]; x2 = 0.05) read?
**A.** 0.0138 ± 0.000382 kcal/mol

**Q.** And the excess molar enthalpy ([1]; x2 = 0.0999)?
**A.** 0.0284 ± 0.000669 kcal/mol

**Q.** And the excess molar enthalpy ([1]; x2 = 0.1497)?
**A.** 0.0413 ± 0.000956 kcal/mol

**Q.** And the excess molar enthalpy ([1]; x2 = 0.1991)?
**A.** 0.0541 ± 0.00122 kcal/mol

**Q.** What about the excess molar enthalpy ([1]; x2 = 0.2482) of the same molecule?
**A.** 0.0641 ± 0.00143 kcal/mol

**Q.** What about the excess molar enthalpy ([1]; x2 = 0.2984) of the same molecule?
**A.** 0.073 ± 0.00163 kcal/mol

**Q.** And the excess molar enthalpy ([1]; x2 = 0.3495)?
**A.** 0.0804 ± 0.00177 kcal/mol

**Q.** What about the excess molar enthalpy ([1]; x2 = 0.4012) of the same molecule?
**A.** 0.0861 ± 0.00189 kcal/mol

**Q.** What about the excess molar enthalpy ([1]; x2 = 0.4503) of the same molecule?
**A.** 0.09 ± 0.00198 kcal/mol

**Q.** What about the excess molar enthalpy ([1]; x2 = 0.4998) of the same molecule?
**A.** 0.0919 ± 0.00201 kcal/mol

**Q.** What about the excess molar enthalpy ([1]; x2 = 0.5495) of the same molecule?
**A.** 0.0924 ± 0.00203 kcal/mol

**Q.** What about the excess molar enthalpy ([1]; x2 = 0.599) of the same molecule?
**A.** 0.0911 ± 0.00198 kcal/mol

**Q.** And the excess molar enthalpy ([1]; x2 = 0.6506)?
**A.** 0.0872 ± 0.00191 kcal/mol

**Q.** And the excess molar enthalpy ([1]; x2 = 0.6993)?
**A.** 0.0831 ± 0.00182 kcal/mol

**Q.** What about the excess molar enthalpy ([1]; x2 = 0.7495) of the same molecule?
**A.** 0.075 ± 0.00165 kcal/mol

**Q.** And the excess molar enthalpy ([1]; x2 = 0.8007)?
**A.** 0.0655 ± 0.00146 kcal/mol

**Q.** And the excess molar enthalpy ([1]; x2 = 0.8507)?
**A.** 0.0533 ± 0.0012 kcal/mol

**Q.** What about the excess molar enthalpy ([1]; x2 = 0.8993) of the same molecule?
**A.** 0.0387 ± 0.000884 kcal/mol

**Q.** And the excess molar enthalpy ([1]; x2 = 0.9498)?
**A.** 0.0207 ± 0.000526 kcal/mol

**Q.** For `Cc1cccc(C)c1` [1,3-dimethylbenzene] + COC(=O)OC, which excess molar enthalpy ([1]; x2 = 0.0502) is on record?
**A.** 0.0299 ± 0.000717 kcal/mol

**Q.** And the excess molar enthalpy ([1]; x2 = 0.1006)?
**A.** 0.0579 ± 0.00129 kcal/mol

**Q.** What about the excess molar enthalpy ([1]; x2 = 0.151) of the same molecule?
**A.** 0.0824 ± 0.00182 kcal/mol

**Q.** And the excess molar enthalpy ([1]; x2 = 0.2014)?
**A.** 0.102 ± 0.00222 kcal/mol

**Q.** And the excess molar enthalpy ([1]; x2 = 0.2517)?
**A.** 0.119 ± 0.00263 kcal/mol

**Q.** What about the excess molar enthalpy ([1]; x2 = 0.3004) of the same molecule?
**A.** 0.133 ± 0.00287 kcal/mol

**Q.** What about the excess molar enthalpy ([1]; x2 = 0.3503) of the same molecule?
**A.** 0.144 ± 0.00311 kcal/mol

**Q.** And the excess molar enthalpy ([1]; x2 = 0.4014)?
**A.** 0.153 ± 0.00335 kcal/mol

**Q.** What about the excess molar enthalpy ([1]; x2 = 0.4506) of the same molecule?
**A.** 0.158 ± 0.00335 kcal/mol

**Q.** What about the excess molar enthalpy ([1]; x2 = 0.5007) of the same molecule?
**A.** 0.16 ± 0.00359 kcal/mol

**Q.** And the excess molar enthalpy ([1]; x2 = 0.5515)?
**A.** 0.16 ± 0.00335 kcal/mol

**Q.** And the excess molar enthalpy ([1]; x2 = 0.6004)?
**A.** 0.156 ± 0.00335 kcal/mol

**Q.** And the excess molar enthalpy ([1]; x2 = 0.6522)?
**A.** 0.149 ± 0.00311 kcal/mol

**Q.** What about the excess molar enthalpy ([1]; x2 = 0.7018) of the same molecule?
**A.** 0.14 ± 0.00311 kcal/mol

**Q.** And the excess molar enthalpy ([1]; x2 = 0.7517)?
**A.** 0.127 ± 0.00263 kcal/mol

**Q.** What about the excess molar enthalpy ([1]; x2 = 0.8017) of the same molecule?
**A.** 0.109 ± 0.00239 kcal/mol

**Q.** What about the excess molar enthalpy ([1]; x2 = 0.8517) of the same molecule?
**A.** 0.0878 ± 0.00194 kcal/mol

**Q.** And the excess molar enthalpy ([1]; x2 = 0.9015)?
**A.** 0.063 ± 0.00141 kcal/mol

**Q.** What about the excess molar enthalpy ([1]; x2 = 0.9509) of the same molecule?
**A.** 0.0337 ± 0.000789 kcal/mol

**Q.** With `Cc1ccccc1C` [1,2-dimethylbenzene] + COC(=O)OC as the molecule, how does the excess molar enthalpy ([1]; x2 = 0.0511) read?
**A.** 0.0266 ± 0.000645 kcal/mol

**Q.** And the excess molar enthalpy ([1]; x2 = 0.1006)?
**A.** 0.0553 ± 0.00124 kcal/mol

**Q.** What about the excess molar enthalpy ([1]; x2 = 0.1503) of the same molecule?
**A.** 0.0795 ± 0.00174 kcal/mol

**Q.** And the excess molar enthalpy ([1]; x2 = 0.2016)?
**A.** 0.0932 ± 0.00203 kcal/mol

**Q.** What about the excess molar enthalpy ([1]; x2 = 0.2513) of the same molecule?
**A.** 0.106 ± 0.00232 kcal/mol

**Q.** And the excess molar enthalpy ([1]; x2 = 0.3024)?
**A.** 0.125 ± 0.00263 kcal/mol

**Q.** What about the excess molar enthalpy ([1]; x2 = 0.3519) of the same molecule?
**A.** 0.137 ± 0.00287 kcal/mol

**Q.** What about the excess molar enthalpy ([1]; x2 = 0.3998) of the same molecule?
**A.** 0.147 ± 0.00311 kcal/mol

**Q.** And the excess molar enthalpy ([1]; x2 = 0.4514)?
**A.** 0.153 ± 0.00335 kcal/mol

**Q.** And the excess molar enthalpy ([1]; x2 = 0.5013)?
**A.** 0.155 ± 0.00335 kcal/mol

**Q.** What about the excess molar enthalpy ([1]; x2 = 0.5519) of the same molecule?
**A.** 0.153 ± 0.00335 kcal/mol

**Q.** What about the excess molar enthalpy ([1]; x2 = 0.6007) of the same molecule?
**A.** 0.149 ± 0.00311 kcal/mol

**Q.** And the excess molar enthalpy ([1]; x2 = 0.6502)?
**A.** 0.142 ± 0.00311 kcal/mol

**Q.** What about the excess molar enthalpy ([1]; x2 = 0.7002) of the same molecule?
**A.** 0.132 ± 0.00287 kcal/mol

**Q.** What about the excess molar enthalpy ([1]; x2 = 0.7504) of the same molecule?
**A.** 0.12 ± 0.00263 kcal/mol

**Q.** What about the excess molar enthalpy ([1]; x2 = 0.8008) of the same molecule?
**A.** 0.104 ± 0.00227 kcal/mol

**Q.** And the excess molar enthalpy ([1]; x2 = 0.8513)?
**A.** 0.0841 ± 0.00184 kcal/mol

**Q.** What about the excess molar enthalpy ([1]; x2 = 0.8998) of the same molecule?
**A.** 0.0605 ± 0.00134 kcal/mol

**Q.** What about the excess molar enthalpy ([1]; x2 = 0.9501) of the same molecule?
**A.** 0.0322 ± 0.000765 kcal/mol

**Q.** For `Cc1ccc(C)cc1` [1,4-dimethylbenzene], which mass density [2] is on record?
**A.** 856.7 ± 0.4 kg/m3

**Q.** Which mass density [2] does the source give for `CCc1ccccc1` [ethylbenzene] here?
**A.** 862.5 ± 0.1 kg/m3
